Results: PMC6409085, “Three odorant-binding proteins are involved in the behavioral response of Sogatella furcifera to rice plant volatiles” (PeerJ, 2019)
“And” between values parts separate entries of the source, which are not always exact repeats. Equal values may be shown once.

Assays:
Test in all cases: biochemical
Type in all cases: binding
SfurOBP11 = SfurOBP11 (Sogatella furcifera, UniProt V5T6E3)
Procedure, shortened: (§1)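 Protein 2.0 µM + 1-NPN 2.0 µM, 50 mM Tris-HCl pH 7.4; competitor odorants 2, 4 … 20 µM final; read 2 min post-addition, ex 337/em 390–490 nm; n=3. K1-NPN from 1-NPN titration/Scatchard; Ki from IC50 corrected for free 1-NPN.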

SfurOBP2 = SfurOBP2 (Sogatella furcifera, UniProt V5T759)
Sequence of SfurOBP2 (V5T759 entry or part of it): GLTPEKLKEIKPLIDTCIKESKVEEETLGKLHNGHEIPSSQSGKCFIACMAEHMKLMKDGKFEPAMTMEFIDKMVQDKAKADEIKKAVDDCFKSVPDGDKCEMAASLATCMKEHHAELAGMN
Procedure, shortened: as §1

SfurOBP3 = SfurOBP3 (Sogatella furcifera, UniProt V5T818); settings: for Fluorescence competitive binding assay, fluorescence intensity: OBP3, three replicate columns
Sequence of SfurOBP3 (V5T818 entry or part of it): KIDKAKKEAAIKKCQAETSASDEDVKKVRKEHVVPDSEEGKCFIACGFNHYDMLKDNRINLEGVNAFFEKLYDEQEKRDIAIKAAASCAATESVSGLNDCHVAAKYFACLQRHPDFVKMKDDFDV
Procedure, shortened: as §1

SfurOBP1 = SfurOBP1 (Sogatella furcifera, UniProt V5T8N5); settings: for Fluorescence competitive binding assay, fluorescence intensity: OBP1, three replicate columns
Sequence of SfurOBP1 (V5T8N5 entry or part of it): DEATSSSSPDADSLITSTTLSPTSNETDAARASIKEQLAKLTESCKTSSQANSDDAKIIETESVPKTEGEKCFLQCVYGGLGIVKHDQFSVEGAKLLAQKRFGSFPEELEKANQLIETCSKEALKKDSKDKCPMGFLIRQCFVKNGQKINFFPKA
Procedure, shortened: as §1

Sequence of SfurOBP11 (V5T6E3 entry or part of it): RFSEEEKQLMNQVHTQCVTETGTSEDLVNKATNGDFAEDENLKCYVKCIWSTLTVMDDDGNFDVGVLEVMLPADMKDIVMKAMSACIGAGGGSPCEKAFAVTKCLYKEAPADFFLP

Structure (SMILES): CCCCCCCCCCCCCCCC [n-hexadecane]
- IC50 (SfurOBP11; SfurOBP11, protein and 1-NPN both 2.0 µM, competitor 2-20 µM, read-out: IC50): > 20 µM
- Fluorescence intensity, fluorescence competitive binding assay, OBP11 (SfurOBP11; ligand concentration 2, replicate 1): 21809
- Fluorescence intensity, fluorescence competitive binding assay, OBP11 (SfurOBP11; ligand concentration 2, replicate 2): 24436
- Fluorescence intensity, fluorescence competitive binding assay, OBP11 (SfurOBP11; ligand concentration 2, replicate 3): 21028
- Fluorescence intensity, fluorescence competitive binding assay, OBP11 (SfurOBP11; ligand concentration 4, replicate 1): 21555
- Fluorescence intensity, fluorescence competitive binding assay, OBP11 (SfurOBP11; ligand concentration 4, replicate 2): 21532
- Fluorescence intensity, fluorescence competitive binding assay, OBP11 (SfurOBP11; ligand concentration 4, replicate 3): 20733
- Fluorescence intensity, fluorescence competitive binding assay, OBP11 (SfurOBP11; ligand concentration 6, replicate 1): 20973
- Fluorescence intensity, fluorescence competitive binding assay, OBP11 (SfurOBP11; ligand concentration 6, replicate 2): 20501
- Fluorescence intensity, fluorescence competitive binding assay, OBP11 (SfurOBP11; ligand concentration 6, replicate 3): 20737
- Fluorescence intensity, fluorescence competitive binding assay, OBP11 (SfurOBP11; ligand concentration 8, replicate 1): 20324
- Fluorescence intensity, fluorescence competitive binding assay, OBP11 (SfurOBP11; ligand concentration 8, replicate 2): 20139
- Fluorescence intensity, fluorescence competitive binding assay, OBP11 (SfurOBP11; ligand concentration 8, replicate 3): 20508
- Fluorescence intensity, fluorescence competitive binding assay, OBP11 (SfurOBP11; ligand concentration 10, replicate 1): 20121
- Fluorescence intensity, fluorescence competitive binding assay, OBP11 (SfurOBP11; ligand concentration 10, replicate 2): 20422
- Fluorescence intensity, fluorescence competitive binding assay, OBP11 (SfurOBP11; ligand concentration 10, replicate 3): 20353
- Fluorescence intensity, fluorescence competitive binding assay, OBP11 (SfurOBP11; ligand concentration 12, replicate 1): 19850
- Fluorescence intensity, fluorescence competitive binding assay, OBP11 (SfurOBP11; ligand concentration 12, replicate 2): 19980
- Fluorescence intensity, fluorescence competitive binding assay, OBP11 (SfurOBP11; ligand concentration 12, replicate 3): 19737
- Fluorescence intensity, fluorescence competitive binding assay, OBP11 (SfurOBP11; ligand concentration 14, replicate 1): 21701
- Fluorescence intensity, fluorescence competitive binding assay, OBP11 (SfurOBP11; ligand concentration 14, replicate 2): 22333
- Fluorescence intensity, fluorescence competitive binding assay, OBP11 (SfurOBP11; ligand concentration 14, replicate 3): 21069
- Fluorescence intensity, fluorescence competitive binding assay, OBP11 (SfurOBP11; ligand concentration 16, replicate 1): 21665
- Fluorescence intensity, fluorescence competitive binding assay, OBP11 (SfurOBP11; ligand concentration 16, replicate 2): 22169
- Fluorescence intensity, fluorescence competitive binding assay, OBP11 (SfurOBP11; ligand concentration 16, replicate 3): 22138
- Fluorescence intensity, fluorescence competitive binding assay, OBP11 (SfurOBP11; ligand concentration 18, replicate 1): 22525
- Fluorescence intensity, fluorescence competitive binding assay, OBP11 (SfurOBP11; ligand concentration 18, replicate 2): 23830
- Fluorescence intensity, fluorescence competitive binding assay, OBP11 (SfurOBP11; ligand concentration 18, replicate 3): 23178
- Fluorescence intensity, fluorescence competitive binding assay, OBP11 (SfurOBP11; ligand concentration 20, replicate 1): 23218
- Fluorescence intensity, fluorescence competitive binding assay, OBP11 (SfurOBP11; ligand concentration 20, replicate 2): 23600
- Fluorescence intensity, fluorescence competitive binding assay, OBP11 (SfurOBP11; ligand concentration 20, replicate 3): 23432
- IC50 (SfurOBP2; SfurOBP2, protein and 1-NPN both 2.0 µM, competitor 2-20 µM, read-out: IC50): 17.4 µM
- Fluorescence competitive binding assay, OBP2 (raw fluorescence reading) (SfurOBP2; ligand concentration 2 (unit not given), replicate column 1 of 3): 13495
- Fluorescence competitive binding assay, OBP2 (raw fluorescence reading) (SfurOBP2; ligand concentration 2 (unit not given), replicate column 2 of 3): 16165
- Fluorescence competitive binding assay, OBP2 (raw fluorescence reading) (SfurOBP2; ligand concentration 2 (unit not given), replicate column 3 of 3): 17504
- Fluorescence competitive binding assay, OBP2 (raw fluorescence reading) (SfurOBP2; ligand concentration 4 (unit not given), replicate column 1 of 3): 14292
- Fluorescence competitive binding assay, OBP2 (raw fluorescence reading) (SfurOBP2; ligand concentration 4 (unit not given), replicate column 2 of 3): 14770
- Fluorescence competitive binding assay, OBP2 (raw fluorescence reading) (SfurOBP2; ligand concentration 4 (unit not given), replicate column 3 of 3): 18258
- Fluorescence competitive binding assay, OBP2 (raw fluorescence reading) (SfurOBP2; ligand concentration 6 (unit not given), replicate column 1 of 3): 13188
- Fluorescence competitive binding assay, OBP2 (raw fluorescence reading) (SfurOBP2; ligand concentration 6 (unit not given), replicate column 2 of 3): 14373
- Fluorescence competitive binding assay, OBP2 (raw fluorescence reading) (SfurOBP2; ligand concentration 6 (unit not given), replicate column 3 of 3): 14976
- Fluorescence competitive binding assay, OBP2 (raw fluorescence reading) (SfurOBP2; ligand concentration 8 (unit not given), replicate column 1 of 3): 12682
- Fluorescence competitive binding assay, OBP2 (raw fluorescence reading) (SfurOBP2; ligand concentration 8 (unit not given), replicate column 2 of 3): 13401
- Fluorescence competitive binding assay, OBP2 (raw fluorescence reading) (SfurOBP2; ligand concentration 8 (unit not given), replicate column 3 of 3): 14572
- Fluorescence competitive binding assay, OBP2 (raw fluorescence reading) (SfurOBP2; ligand concentration 10 (unit not given), replicate column 1 of 3): 12390
- Fluorescence competitive binding assay, OBP2 (raw fluorescence reading) (SfurOBP2; ligand concentration 10 (unit not given), replicate column 2 of 3): 12956
- Fluorescence competitive binding assay, OBP2 (raw fluorescence reading) (SfurOBP2; ligand concentration 10 (unit not given), replicate column 3 of 3): 13308
- Fluorescence competitive binding assay, OBP2 (raw fluorescence reading) (SfurOBP2; ligand concentration 12 (unit not given), replicate column 1 of 3): 11320
- Fluorescence competitive binding assay, OBP2 (raw fluorescence reading) (SfurOBP2; ligand concentration 12 (unit not given), replicate column 2 of 3): 12682
- Fluorescence competitive binding assay, OBP2 (raw fluorescence reading) (SfurOBP2; ligand concentration 12 (unit not given), replicate column 3 of 3): 13112
- Fluorescence competitive binding assay, OBP2 (raw fluorescence reading) (SfurOBP2; ligand concentration 14 (unit not given), replicate column 1 of 3): 11586
- Fluorescence competitive binding assay, OBP2 (raw fluorescence reading) (SfurOBP2; ligand concentration 14 (unit not given), replicate column 2 of 3): 11754
- Fluorescence competitive binding assay, OBP2 (raw fluorescence reading) (SfurOBP2; ligand concentration 14 (unit not given), replicate column 3 of 3): 12906
- Fluorescence competitive binding assay, OBP2 (raw fluorescence reading) (SfurOBP2; ligand concentration 16 (unit not given), replicate column 1 of 3): 10605
- Fluorescence competitive binding assay, OBP2 (raw fluorescence reading) (SfurOBP2; ligand concentration 16 (unit not given), replicate column 2 of 3): 10448
- Fluorescence competitive binding assay, OBP2 (raw fluorescence reading) (SfurOBP2; ligand concentration 16 (unit not given), replicate column 3 of 3): 11282
- Fluorescence competitive binding assay, OBP2 (raw fluorescence reading) (SfurOBP2; ligand concentration 18 (unit not given), replicate column 1 of 3): 14498
- Fluorescence competitive binding assay, OBP2 (raw fluorescence reading) (SfurOBP2; ligand concentration 18 (unit not given), replicate column 2 of 3): 14899
- Fluorescence competitive binding assay, OBP2 (raw fluorescence reading) (SfurOBP2; ligand concentration 18 (unit not given), replicate column 3 of 3): 13250
- Fluorescence competitive binding assay, OBP2 (raw fluorescence reading) (SfurOBP2; ligand concentration 20 (unit not given), replicate column 1 of 3): 13545
- Fluorescence competitive binding assay, OBP2 (raw fluorescence reading) (SfurOBP2; ligand concentration 20 (unit not given), replicate column 2 of 3): 12591
- Fluorescence competitive binding assay, OBP2 (raw fluorescence reading) (SfurOBP2; ligand concentration 20 (unit not given), replicate column 3 of 3): 11415
- Fluorescence competitive binding assay, fluorescence intensity (SfurOBP3; ligand concentration 2): 69046 and 56769 and 63691
- Fluorescence competitive binding assay, fluorescence intensity (SfurOBP3; ligand concentration 4): 61024 and 72407 and 63576
- Fluorescence competitive binding assay, fluorescence intensity (SfurOBP3; ligand concentration 6): 62953 and 54664 and 55739
- Fluorescence competitive binding assay, fluorescence intensity (SfurOBP3; ligand concentration 8): 48630 and 46017 and 57385
- Fluorescence competitive binding assay, fluorescence intensity (SfurOBP3; ligand concentration 10): 48455 and 41384 and 49192
- Fluorescence competitive binding assay, fluorescence intensity (SfurOBP3; ligand concentration 12): 44417 and 51591 and 51023
- Fluorescence competitive binding assay, fluorescence intensity (SfurOBP3; ligand concentration 14): 42917 and 40156 and 40042
- Fluorescence competitive binding assay, fluorescence intensity (SfurOBP3; ligand concentration 16): 37264 and 50015 and 45340
- Fluorescence competitive binding assay, fluorescence intensity (SfurOBP3; ligand concentration 18): 66503 and 59244 and 47400
- Fluorescence competitive binding assay, fluorescence intensity (SfurOBP3; ligand concentration 20): 55843 and 55740 and 43544
- IC50 (SfurOBP3; SfurOBP3, protein and 1-NPN both 2.0 µM, competitor 2-20 µM, read-out: IC50): > 20 µM
- Fluorescence competitive binding assay, fluorescence intensity (SfurOBP1; ligand concentration 2 (μM)): 5137 and 5021 and 5229
- Fluorescence competitive binding assay, fluorescence intensity (SfurOBP1; ligand concentration 4 (μM)): 5910 and 6306 and 5547
- Fluorescence competitive binding assay, fluorescence intensity (SfurOBP1; ligand concentration 6 (μM)): 6300 and 6430 and 6367
- Fluorescence competitive binding assay, fluorescence intensity (SfurOBP1; ligand concentration 8 (μM)): 6419 and 6500 and 6466
- Fluorescence competitive binding assay, fluorescence intensity (SfurOBP1; ligand concentration 10 (μM)): 6532 and 6517 and 6502
- Fluorescence competitive binding assay, fluorescence intensity (SfurOBP1; ligand concentration 12 (μM)): 6620 and 6292 and 6471
- Fluorescence competitive binding assay, fluorescence intensity (SfurOBP1; ligand concentration 14 (μM)): 6713 and 6503 and 6353
- Fluorescence competitive binding assay, fluorescence intensity (SfurOBP1; ligand concentration 16 (μM)): 6541 and 6507 and 6533
- Fluorescence competitive binding assay, fluorescence intensity (SfurOBP1; ligand concentration 18 (μM)): 7558 and 7106 and 6654
- Fluorescence competitive binding assay, fluorescence intensity (SfurOBP1; ligand concentration 20 (μM)): 6949 and 7724 and 7337
- IC50 (SfurOBP1; SfurOBP1, protein and 1-NPN both 2.0 µM, competitor 2-20 µM, read-out: IC50): > 20 µM
